Test results from the NIST ThermoML archive (doi:10.1016/j.jct.2013.05.036).
Numbers after ± are expanded uncertainties.

Conditions: 101.33 kPa, Liquid, Levitation methods

Question: With [Re] [rhenium] as the molecule, how does the viscosity (3034 K) read?
Answer: Its viscosity is 14.9 ± 3 mPa·s.

Question: And the viscosity (3050 K)?
Answer: The viscosity was 14.6 ± 3 mPa·s.

Question: And the viscosity (3100 K)?
Answer: The viscosity was 13.9 ± 2.8 mPa·s.

Question: What about the viscosity (3150 K) of the same molecule?
Answer: The viscosity was 13.2 ± 2.7 mPa·s.

Question: What about the viscosity (3200 K) of the same molecule?
Answer: The viscosity was 12.5 ± 2.5 mPa·s.

Question: What about the viscosity (3250 K) of the same molecule?
Answer: The viscosity was 12 ± 2.4 mPa·s.

Question: What about the viscosity (3300 K) of the same molecule?
Answer: Its viscosity is 11.4 ± 2.3 mPa·s.

Question: And the viscosity (3350 K)?
Answer: Its viscosity is 10.9 ± 2.2 mPa·s.

Question: And the viscosity (3400 K)?
Answer: Its viscosity is 10.4 ± 2.1 mPa·s.

Question: And the viscosity (3450 K)?
Answer: Its viscosity is 10 ± 2 mPa·s.

Question: And the viscosity (3459 K)?
Answer: The viscosity was 9.9 ± 2 mPa·s.

Question: What about the viscosity (3500 K) of the same molecule?
Answer: Its viscosity is 9.6 ± 1.9 mPa·s.

Question: What about the viscosity (3550 K) of the same molecule?
Answer: The viscosity was 9.2 ± 1.9 mPa·s.

Question: And the viscosity (3600 K)?
Answer: Its viscosity is 8.8 ± 1.8 mPa·s.

Question: And the viscosity (3650 K)?
Answer: The viscosity was 8.5 ± 1.7 mPa·s.

Question: And the viscosity (3675 K)?
Answer: The viscosity was 8.4 ± 1.7 mPa·s.

Question: What does the source list for [W] [tungsten]?
Answer: viscosity (3155 K): 16.7 ± 3.5 mPa·s; viscosity (3200 K): 15.7 ± 3.3 mPa·s; viscosity (3250 K): 14.6 ± 3 mPa·s; viscosity (3300 K): 13.7 ± 2.8 mPa·s; viscosity (3350 K): 12.8 ± 2.6 mPa·s; viscosity (3400 K): 12 ± 2.5 mPa·s; viscosity (3450 K): 11.3 ± 2.3 mPa·s; viscosity (3500 K): 10.6 ± 2.2 mPa·s; viscosity (3550 K): 10 ± 2.1 mPa·s; viscosity (3600 K): 9.4 ± 1.9 mPa·s; viscosity (3634 K): 9.1 ± 1.9 mPa·s; viscosity (3695 K): 8.5 ± 1.7 mPa·s

Question: For [Os] [osmium], which viscosity (3265 K) is on record?
Answer: Its viscosity is 7.4 ± 1.5 mPa·s.

Question: What about the viscosity (3290 K) of the same molecule?
Answer: The viscosity was 7.2 ± 1.5 mPa·s.

Question: What about the viscosity (3306 K) of the same molecule?
Answer: Its viscosity is 7 ± 1.4 mPa·s.

Question: And the viscosity (3315 K)?
Answer: The viscosity was 7 ± 1.4 mPa·s.

Question: What about the viscosity (3340 K) of the same molecule?
Answer: Its viscosity is 6.7 ± 1.4 mPa·s.

Question: And the viscosity (3365 K)?
Answer: Its viscosity is 6.5 ± 1.4 mPa·s.

Question: What about the viscosity (3390 K) of the same molecule?
Answer: The viscosity was 6.3 ± 1.3 mPa·s.

Question: And the viscosity (3415 K)?
Answer: The viscosity was 6.1 ± 1.3 mPa·s.

Question: And the viscosity (3440 K)?
Answer: Its viscosity is 6 ± 1.2 mPa·s.

Question: What about the viscosity (3465 K) of the same molecule?
Answer: The viscosity was 5.8 ± 1.2 mPa·s.

Question: And the viscosity (3490 K)?
Answer: The viscosity was 5.6 ± 1.2 mPa·s.

Question: And the viscosity (3515 K)?
Answer: Its viscosity is 5.5 ± 1.1 mPa·s.

Question: And the viscosity (3542 K)?
Answer: The viscosity was 5.3 ± 1.1 mPa·s.

Question: With [Mo] [molybdenum] as the molecule, how does the viscosity (2573 K) read?
Answer: Its viscosity is 6.7 ± 1.4 mPa·s.

Question: What about the viscosity (2600 K) of the same molecule?
Answer: The viscosity was 6.6 ± 1.4 mPa·s.

Question: And the viscosity (2650 K)?
Answer: Its viscosity is 6.2 ± 1.3 mPa·s.

Question: And the viscosity (2700 K)?
Answer: Its viscosity is 5.9 ± 1.2 mPa·s.

Question: What about the viscosity (2750 K) of the same molecule?
Answer: The viscosity was 5.7 ± 1.2 mPa·s.

Question: What about the viscosity (2800 K) of the same molecule?
Answer: Its viscosity is 5.4 ± 1.1 mPa·s.

Question: What about the viscosity (2850 K) of the same molecule?
Answer: Its viscosity is 5.2 ± 1.1 mPa·s.

Question: What about the viscosity (2896 K) of the same molecule?
Answer: Its viscosity is 5 ± 1 mPa·s.

Question: And the viscosity (2900 K)?
Answer: Its viscosity is 5 ± 1 mPa·s.

Question: What about the viscosity (2950 K) of the same molecule?
Answer: The viscosity was 4.8 ± 1 mPa·s.

Question: What about the viscosity (3000 K) of the same molecule?
Answer: Its viscosity is 4.6 ± 0.9 mPa·s.

Question: And the viscosity (3050 K)?
Answer: Its viscosity is 4.5 ± 0.9 mPa·s.

Question: And the viscosity (3100 K)?
Answer: Its viscosity is 4.3 ± 0.9 mPa·s.

Question: What about the viscosity (3150 K) of the same molecule?
Answer: Its viscosity is 4.2 ± 0.8 mPa·s.

Question: What about the viscosity (3213 K) of the same molecule?
Answer: The viscosity was 4 ± 0.8 mPa·s.

Question: For [Ta] [tantalum], which viscosity (2880 K) is on record?
Answer: Its viscosity is 13.4 ± 2.7 mPa·s.

Question: What about the viscosity (2900 K) of the same molecule?
Answer: The viscosity was 13.1 ± 2.7 mPa·s.

Question: And the viscosity (2950 K)?
Answer: The viscosity was 12.4 ± 2.5 mPa·s.

Question: And the viscosity (3000 K)?
Answer: The viscosity was 11.7 ± 2.4 mPa·s.

Question: What about the viscosity (3050 K) of the same molecule?
Answer: The viscosity was 11.1 ± 2.3 mPa·s.

Question: And the viscosity (3100 K)?
Answer: The viscosity was 10.6 ± 2.2 mPa·s.

Question: And the viscosity (3150 K)?
Answer: Its viscosity is 10.1 ± 2.1 mPa·s.

Question: And the viscosity (3200 K)?
Answer: The viscosity was 9.6 ± 2 mPa·s.

Question: And the viscosity (3250 K)?
Answer: Its viscosity is 9.2 ± 1.9 mPa·s.

Question: What about the viscosity (3293 K) of the same molecule?
Answer: Its viscosity is 8.9 ± 1.8 mPa·s.

Question: And the viscosity (3300 K)?
Answer: The viscosity was 8.8 ± 1.8 mPa·s.

Question: What about the viscosity (3350 K) of the same molecule?
Answer: Its viscosity is 8.4 ± 1.7 mPa·s.

Question: And the viscosity (3400 K)?
Answer: Its viscosity is 8.1 ± 1.6 mPa·s.

Question: And the viscosity (3450 K)?
Answer: Its viscosity is 7.8 ± 1.6 mPa·s.

Question: What about the viscosity (3500 K) of the same molecule?
Answer: Its viscosity is 7.5 ± 1.5 mPa·s.

Question: What about the viscosity (3514 K) of the same molecule?
Answer: The viscosity was 7.4 ± 1.5 mPa·s.
